Drawing on ChEMBL document CHEMBL2401683, “Discovery of novel andrographolide derivatives as cytotoxic agents” (2013), this text covers GI50 and Activity for 18 compounds.

One assay relates to A549. Put plainly: Growth inhibition of human A549 cells after 72 hrs by SRB assay. The note with it: A549, 72 h. It is filed as functional.
The next assay has as its system DU-145. Put plainly: Growth inhibition of human DU145 cells after 72 hrs by SRB assay. Format: functional. The following applies: DU-145, 72 h.
Assay [1] is described as follows: Growth inhibition of human KBVIN cells after 72 hrs by SRB assay. Format: functional.
A further assay has as its system KB. The experiment in a line: Growth inhibition of human KB cells after 72 hrs by SRB assay. Format: functional.
Assay [2] deals with PC-3. Put plainly: Disruption of microtubule dynamics in human PC3 cells at 30 to 60 uM after 24 hrs by DAPI staining-based confocal microscopic analysis. It is filed as functional, cell-based.
Assay [3] concerns PC-3. The experiment in a line: Induction of metaphase cell accumulation in human PC3 cells at 30 to 60 uM after 24 hrs by DAPI staining-based confocal microscopic analysis. It is filed as functional.

Activity calls are given as the source filed them. The calls are words filed in the database; no cut-off is given here. Some results are limits rather than exact numbers.

For the compound `C=C1CC[C@@H]2[C@](C)(COC(=O)CCN3CCOCC3)[C@H](O)CC[C@@]2(C)[C@@H]1/C=C/C1=CCOC1=O`, the GI50 with A549 was > 30 µM; with DU-145, 30.3 µM; in assay [1], 30 µM; in the assay on KB, > 30 µM.
Regarding `C=C1CC[C@@H]2[C@](C)(COC(=O)C3CCCN3C(=O)OC(C)(C)C)[C@H](O)CC[C@@]2(C)[C@@H]1/C=C/C1=CCOC1=O` (stereo not given in full), the GI50 with A549 stood at 18.8 µM; with DU-145, 18.8 µM; in assay [1] it was 17.9 µM; in the assay with KB, 20.1 µM.
Consider `C=C1CC[C@@H]2[C@]3(C)CO[C@@H](c4ccc(O)cc4)O[C@@H]3CC[C@@]2(C)[C@@H]1/C=C/C1=CCOC1=O`, for which the GI50 with A549 came out at 22.8 µM; in the assay on DU-145, 19.1 µM; in assay [1] it was 22.6 µM; in the assay on KB, 23.7 µM.
In the same order, the values of `C=C1CC[C@@H]2[C@]3(C)CO[C@@H](c4ccc(N(C)C)cc4)O[C@@H]3CC[C@@]2(C)[C@@H]1/C=C/C1=CCOC1=O` are 33 µM, > 30 µM, > 30 µM and > 30 µM.
With `C=C1CC[C@@H]2[C@](C)(COC(=O)CCCCC3CCSS3)[C@H](OC(=O)CCCCC3CCSS3)CC[C@@]2(C)[C@@H]1/C=C/C1=CCOC1=O` (stereo not given in full), the concentration for 50% growth inhibition (GI50) was determined as 10.2 µM in the assay on A549, 11.8 µM in the assay on DU-145, 12.9 µM in assay [1] and 11.7 µM in the assay with KB.
For the compound `C=C1CC[C@@H]2[C@](C)(COC(=O)CCN(C)C)[C@H](OC(=O)CCN(C)C)CC[C@@]2(C)[C@@H]1/C=C/C1=CCOC1=O`, the GI50 in the assay with A549 was 32 µM; in the assay with DU-145, 25.3 µM; in assay [1], 31.7 µM; with KB it was > 30 µM.
Turning to `C=C1CC[C@@H]2[C@]3(C)CO[C@@H](c4ccco4)O[C@@H]3CC[C@@]2(C)[C@@H]1/C=C/C1=CCOC1=O`, the 50% growth inhibitory concentration (GI50) in the assay on A549 is 34 µM; with DU-145 it was 32.9 µM; in assay [1] it was 32.7 µM; in the assay with KB it was 36.4 µM.
Take `C=C1CC[C@@H]2[C@](C)(COC(=O)CN(C)C)[C@H](OC(=O)CN(C)C)CC[C@@]2(C)[C@@H]1/C=C/C1=CCOC1=O`: the 50% growth inhibitory concentration (GI50) (in the assay with A549; in the assay on DU-145; in assay [1]; in the assay on KB) was > 30 µM in each case.
Consider `C=C1CC[C@@H]2[C@](C)(COC(=O)c3cnccn3)[C@H](OC(=O)c3cnccn3)CC[C@@]2(C)[C@@H]1/C=C/C1=CCOC1=O`, for which the GI50 with A549 was 4.87 µM; with DU-145, 8.63 µM; in assay [1] it was 9.19 µM; with KB, 8.24 µM.
Consider `C=C1CC[C@@H]2[C@](C)(COC(=O)C3CCN(C)CC3)[C@H](OC(=O)C3CCN(C)CC3)CC[C@@]2(C)[C@@H]1/C=C/C1=CCOC1=O`, for which the GI50 in the assay with A549 came out at 1.46 µM; with DU-145, 2.27 µM; in assay [1] it was 3 µM; with KB, 2.55 µM. Further, the outcome in the assay on PC-3 [2] was Active. In the assay with PC-3 [3], the outcome was inactive.
Take `C=C1CC[C@@H]2[C@]3(C)CO[C@@H](c4ccc([N+](=O)[O-])cc4)O[C@@H]3CC[C@@]2(C)[C@@H]1/C=C/C1=CCOC1=O`: the GI50 with A549 is 30.8 µM; with DU-145, > 30 µM; in assay [1] it was > 30 µM; in the assay with KB it was > 30 µM.
For `C=C1CC[C@@H]2[C@](C)(COC(=O)CCN3CCOCC3)[C@H](OC(=O)CCN3CCOCC3)CC[C@@]2(C)[C@@H]1/C=C/C1=CCOC1=O`, the GI50 (in the assay on A549; in the assay with DU-145; in assay [1]; in the assay with KB) was > 30 µM throughout.
With `C=C1CC[C@@H]2[C@]3(C)CO[C@@H](c4ccc(C(F)(F)F)cc4)O[C@@H]3CC[C@@]2(C)[C@@H]1/C=C/C1=CCOC1=O`, the GI50 was 16.9 µM in the assay with A549, 17.2 µM in the assay on DU-145, 18.3 µM in assay [1] and 23.4 µM in the assay with KB.
Consider `C=C1CC[C@@H]2[C@](C)(COC(=O)c3cccnc3)[C@H](OC(=O)c3cccnc3)CC[C@@]2(C)[C@@H]1/C=C/C1=CCOC1=O`, for which the concentration for 50% growth inhibition (GI50) (in the assay with A549; in the assay on DU-145; in assay [1]; in the assay on KB) was > 30 µM in each case.
Turning to `C=C1CC[C@@H]2[C@](C)(CO)[C@H](O)CC[C@@]2(C)[C@@H]1C/C=C1/C(=O)OC[C@H]1O` [ANDROGRAPHOLIDE], the GI50 in the assay with A549 turned out to be 13.4 µM; in the assay on DU-145 it was 16 µM; in assay [1], 13.8 µM; with KB it was 13.2 µM. In the assay with PC-3 [3], the outcome was Active.
As for `C=C1CC[C@@H]2[C@]3(C)CO[C@@H](c4ccc(OC)cc4)O[C@@H]3CC[C@@]2(C)[C@@H]1/C=C/C1=CCOC1=O`, the GI50 in the assay with A549 is 26.9 µM; in the assay with DU-145, 32.1 µM; in assay [1], > 30 µM; in the assay on KB it was 32.9 µM.
With `C=C1CC[C@@H]2[C@](C)(COC(=O)C3CCCN3C(=O)OC(C)(C)C)[C@H](OC(=O)C3CCCN3C(=O)OC(C)(C)C)CC[C@@]2(C)[C@@H]1/C=C/C1=CCOC1=O` (stereo not given in full), the GI50 with A549 was found to be 10.2 µM; with DU-145 it was 11.1 µM; in assay [1] it was 11.1 µM; in the assay on KB it was 12.5 µM.
With `C=C1CC[C@@H]2[C@](C)(COC(=O)CCCCC3CCSS3)[C@H](O)CC[C@@]2(C)[C@@H]1/C=C/C1=CCOC1=O` (stereo not given in full), the GI50 (in the assay with A549; in the assay on DU-145; in assay [1]; with KB) was > 30 µM in each case.
